Measurements as given in US20080090805A1, “CB-1 MODULATING COMPOUNDS AND THEIR USE” (ACADIA PHARMACEUTICALS INC., priority 2005, published 2008).
Read-outs that look alike come from different tables or passages of the source.

Biological target: CB1 (mutant) (Homo sapiens, UniProt P21554)
Test: R-SAT functional receptor assay, CB1 (mutant, truncated after amino acid 417)
Type: cell-based
Details: R-SAT CB1; for Emax / % Inhibition: receptor form not stated, relative to SR141716 (100%); for Emax: read-out: % Inhibition; for IC50 / pIC50: receptor form (mutant or wild-type) not stated
[1] = Appendix A, read-out: pIC50 (converted)

CB1 (mutant), sequence (P21554 1-417, change not shown): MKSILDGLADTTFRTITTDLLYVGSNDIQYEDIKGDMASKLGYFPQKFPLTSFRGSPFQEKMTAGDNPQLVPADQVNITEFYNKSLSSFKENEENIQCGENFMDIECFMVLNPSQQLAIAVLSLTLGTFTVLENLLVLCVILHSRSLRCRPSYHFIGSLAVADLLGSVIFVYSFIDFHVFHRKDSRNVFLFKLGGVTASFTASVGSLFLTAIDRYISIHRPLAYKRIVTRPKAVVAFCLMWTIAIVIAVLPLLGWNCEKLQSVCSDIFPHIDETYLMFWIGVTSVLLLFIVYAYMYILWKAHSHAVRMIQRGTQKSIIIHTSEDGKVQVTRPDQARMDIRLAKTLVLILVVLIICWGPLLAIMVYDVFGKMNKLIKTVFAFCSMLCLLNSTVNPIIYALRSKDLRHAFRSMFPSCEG

Row | SMILES | Emax (Appendix A) [%] | IC50 [1] [nM] | pIC50 (Appendix A) | % Inhibition (Appendix A) [%] | IC50 (pIC50, Appendix A) [nM]
1 | CC(C)CNC(=O)c1ccc2c(c1)N=C(c1ccccc1Cl)c1ccccc1S2 | 86 | – | – | – | –
2 | COc1cccc(C2=Nc3cc(C(=O)NCCC(F)(F)F)ccc3Sc3ccccc32)n1 [drawing 707] | 104 | 7.94 | – | – | –
3 | O=C(NCCc1ccc(Cl)cc1)c1ccc2c(c1)N=C(c1ccccc1)c1ccccc1S2 [drawing 733] | 108 | 7.94 | – | – | –
4 | CON(C)C(=O)c1ccc2c(c1)N=C(c1ccccc1Cl)c1ccccc1S2 | 10 | – | 1.0 | – | –
5 | O=C(NCc1ccc(F)cc1)c1ccc2c(c1)N=C(c1ccccc1)c1ccccc1S2 [drawing 745] | 108 | 7.94 | – | – | –
6 | CCCC1=NC2=C(CCC(C(=O)N3CCN(c4ccccc4F)CC3)=C2)Sc2ccccc21 | 97 | 251 | – | – | –
7 | CC(C)CNC(=O)c1ccc2c(c1)N=C(c1ccc(Cl)s1)c1ccc(F)cc1S2 [drawing 703] | 117 | 7.94 | – | – | –
8 | O=C(NNCc1ccccc1)c1ccc2c(c1)N=C(c1cccc(Br)c1)c1ccccc1S2 [drawing 928] | 86 | 251 | – | – | –
9 | O=C(NCc1cccc(Cl)c1)c1ccc2c(c1)N=C(c1ccc(F)cc1)c1ccccc1S2(=O)=O [drawing 833] | 108 | 12.6 | – | – | –
10 | O=C(NCCc1ccncc1)c1ccc2c(c1)N=C(c1ccc(F)cc1)c1ccccc1S2 [drawing 1031] | 94 | 25.1 | – | – | –
11 | O=C(NCc1ccc(Cl)cc1Cl)c1ccc2c(c1)N=C(c1ccccc1)c1ccccc1S2 [drawing 1167] | 91 | 39.8 | – | – | –
12 | CON(C)C(=O)c1ccc2c(c1)N=C(c1ncccc1C)c1ccccc1S2 | 0 | – | 1.0 | – | –
13 | CCCCCC1=Nc2cc(C(=O)NN3CCCCC3)ccc2Sc2ccccc21 | 100 | 251 | – | – | –
14 | CC(C)CCNC(=O)c1ccc2c(c1)N=C(c1cccc(Cl)c1)c1ccccc1S2 [drawing 567] | 115 | 2.51 | – | – | –
15 | O=C(NC1CCC(F)(F)CC1)c1ccc2c(c1)N=C(c1cccc(F)c1)c1ccccc1S2 [drawing 659] | 77 | 6.31 | – | – | –
16 | O=C(NC1CCCCC1)c1ccc2c(c1)N=C(c1cccc(Cl)c1)c1ccccc1S2 [drawing 843] | 99 | 12.6 | – | – | –
17 | O=C(NN1CCCCCC1)c1ccc2c(c1)N=C(c1cccc(Cl)c1)c1ccccc1S2 [drawing 721] | – | 7.94 | – | 105 | –
18 | NS(=O)(=O)c1ccc(CNC(=O)c2ccc3c(c2)N=C(c2ccc(Cl)cc2)c2ccccc2S3)cc1 [drawing 746] | 76 | 79.4 | – | – | –
19 | CCCCNC(=O)c1ccc2c(c1)N=C(C1CCCCC1)c1ccccc1S2 [drawing 937] | 106 | 20 | – | – | –
20 | O=C(NCCc1ccccn1)c1ccc2c(c1)N=C(c1ccc(F)cc1)c1ccccc1S2 [drawing 1145] | 101 | 39.8 | – | – | –
21 | O=C(NCc1ccccc1Cl)c1ccc2c(c1)N=C(c1ccc(F)cc1)c1ccccc1S2 [drawing 1121] | 89 | 39.8 | – | – | –
22 | C=C(/C=C\C1=CN=C(CCC)c2ccccc2S1)C(=O)NC1CCCC1 | 109 | 79.4 | – | – | –
23 | Cc1ccsc1C1=Nc2cc(C(=O)NCc3cccnc3)ccc2Sc2ccccc21 | 102 | 100 | – | – | –
24 | O=C(NN1CCCCCC1)c1ccc2c(c1)N=C(c1ccc(Cl)cc1Cl)c1ccccc1S2 [drawing 876] | 82 | 200 | – | – | –

Row | SMILES | Emax (Appendix A) [%] | IC50 [1] [nM] | pIC50 (Appendix A) | % Inhibition (Appendix A) [%] | IC50 (pIC50, Appendix A) [nM]
25 | O=C(NC1CCC(F)(F)CC1)c1ccc2c(c1)N=C(c1ccc(Cl)s1)c1ccccc1S2 [drawing 767] | 71 | 10 | – | – | –
26 | CC(C)CCNC(=O)c1ccc2c(c1)N=C(c1ccccn1)c1ccccc1S2 [drawing 967] | – | 20 | – | – | –
27 | CCCCC1=Nc2cc(C(=O)NC)ccc2Sc2ccccc21 | 55 | 50.1 | – | – | –
28 | CC(C)CNC(=O)c1ccc2c(c1)N=C(c1ccc(Cl)cn1)c1ccc(F)cc1S2 [drawing 558] | 123 | 50.1 | – | – | –
29 | CCOC(=O)N1CCC(NC(=O)c2ccc3c(c2)N=C(c2ccc(Cl)cc2)c2ccccc2S3)CC1 [drawing 676] | – | 63.1 | – | 105 | –
30 | O=C(NCc1cccnc1)c1ccc2c(c1)N=C(c1ccccc1F)c1ccccc1S2 [drawing 1035] | 114 | 25.1 | – | – | –
31 | N#Cc1ccc(C2=Nc3cc(C(=O)NCc4ccccn4)ccc3Sc3ccccc32)cc1 | 99 | 79.4 | – | – | –
32 | O=C(NN1CCOCC1)c1ccc2c(c1)N=C(N1CCCCC1)c1ccccc1S2 | 99 | 794 | – | – | –
33 | CONC(=O)c1ccc2c(c1)N=C(c1ccc(Cl)cc1Cl)c1ccccc1S2 | -27 | – | 1.0 | – | –
34 | COCCNC(=O)c1ccc2c(c1)N=C(c1ccc(Cl)s1)c1ccccc1S2 [drawing 963] | – | 20 | – | 95 | –
35 | O=C(NCc1ccccc1Cl)c1ccc2c(c1)N=C(c1ccccc1F)c1ccccc1S2 [drawing 622] | 72 | – | – | – | 63.1
36 | CCCNC(=O)c1ccc2c(c1)N=C(c1cccc(F)c1)c1ccccc1S2 [drawing 893] | 109 | 15.8 | – | – | –
37 | Cc1ccc(CNC(=O)c2ccc3c(c2)N=C(c2ccc(Cl)cc2)c2ccccc2S3)o1 [drawing 1141] | 93 | – | – | – | 39.8
38 | CC(C)CNC(=O)c1ccc2c(c1)N=C(c1ccc(Cl)cc1)c1ccccc1S2 [drawing 741] | 123 | – | – | – | 7.94
39 | CCCCNC(=O)c1ccc2c(c1)N=C(c1ccc(Cl)s1)c1ccccc1S2 [drawing 633] | 92 | 5.01 | – | – | –
40 | NS(=O)(=O)c1ccc(CNC(=O)c2ccc3c(c2)N=C(c2ccc(F)cc2)c2ccccc2S3)cc1 [drawing 812] | 83 | – | – | – | –
41 | O=C(NN1CCCCC1)c1ccc2c(c1)N=C(c1ccc(F)cc1)c1ccccc1S2 [drawing 680] | 84 | – | – | – | –
42 | O=C(NCc1ccncc1)c1ccc2c(c1)N=C(c1ccc(Cl)cc1)c1ccccc1S2 [drawing 696] | 105 | 79.4 | – | – | –
43 | O=C(NCc1ccncc1)c1ccc2c(c1)N=C(c1ccccc1Cl)c1ccccc1S2 | 67 | 794 | – | – | –
44 | CCCCC1=Nc2cc(C(=O)N3CCN(c4ccc(C)cc4C)CC3)ccc2Sc2ccccc21 | 104 | 316 | – | – | –
45 | O=C(NCc1ccc(F)cc1)c1ccc2c(c1)N=C(c1ccc(F)cc1)c1ccccc1N2 | 61 | – | – | – | –
46 | COCCNC(=O)c1ccc2c(c1)N=C(c1ccc(Cl)s1)c1ccccc1S2 [drawing 819] | 103 | 12.6 | – | – | –
47 | CCOC(=O)c1ccc(C2=Nc3cc(C(=O)NCc4ccncc4)ccc3Sc3ccccc32)cc1 | 69 | 501 | – | – | –
48 | CCCC1=Nc2cc(C(=O)NCCCN(C)C3CCCCC3)ccc2Sc2ccccc21 | 120 | – | – | – | –

Row | SMILES | Emax (Appendix A) [%] | IC50 [1] [nM] | pIC50 (Appendix A) | % Inhibition (Appendix A) [%] | IC50 (pIC50, Appendix A) [nM]
49 | O=C(NCc1ccccc1Br)c1ccc2c(c1)N=C(N1CCCCC1)c1ccccc1S2 [drawing 890] | 62 | 200 | – | – | –
50 | CCCCNC(=O)c1ccc2c(c1)N=C(c1ccc(OC)cc1)c1ccccc1S2 [drawing 887] | 112 | 15.8 | – | – | –
51 | O=C(NCCc1ccccc1)c1ccc2c(c1)N=C(c1ccccc1F)c1ccccc1S2 [drawing 600] | 98 | 50.1 | – | – | –
52 | O=C(NC1CCCC1)c1ccc2c(c1)N=C(c1ccc(Cl)cc1Cl)c1ccccc1S2 | 52 | – | – | – | –
53 | O=C(NN1CCCC1)c1ccc2c(c1)N=C(c1ccccc1F)c1ccccc1S2 | 69 | 200 | – | – | –
54 | CCCC1=Nc2cc(C(=O)NCCCc3ccccc3)ccc2Sc2ccccc21 [drawing 763] | 104 | 10 | – | – | –
55 | O=C(NOc1cccc(Cl)c1)c1ccc2c(c1)N=C(C1CCCCC1)c1cc(F)ccc1S2 | 100 | 39.8 | – | – | –
56 | CCCC1=Nc2cc(C(=O)NCc3ccccc3Cl)ccc2Sc2ccccc21 [drawing 791] | 105 | 10 | – | – | –
57 | COc1ccc(C2=Nc3cc(C(=O)NC4CCCCC4)ccc3Sc3ccccc32)cc1 [drawing 1153] | 115 | 39.8 | – | – | –
58 | O=C(NN1CCCCC1)c1ccc2c(c1)N=C(c1cccc(F)c1)c1ccccc1S2 [drawing 929] | 111 | – | – | – | 15.8
59 | O=C(NCc1ccccn1)c1ccc2c(c1)N=C(c1ccc(Cl)cc1)c1ccccc1S2 [drawing 1157] | 125 | 39.8 | – | – | –
60 | O=C(NN1CCCCC1)c1ccc2c(c1)N=C(c1ccc(Br)cc1)c1ccccc1S2 [drawing 993] | 92 | 25.1 | – | – | –
61 | O=C(NCc1ccccn1)c1ccc2c(c1)N=C(c1ccc(F)cc1)c1ccccc1S2 | 90 | 63.1 | – | – | –
62 | COc1ccc(C2=Nc3cc(C(=O)NCc4ccc(S(N)(=O)=O)cc4)ccc3Sc3ccccc32)cc1 | 84 | 158 | – | – | –
63 | O=C(NCCCc1ccccc1)c1ccc2c(c1)N=C(c1ccccc1F)c1ccccc1S2 [drawing 935] | 106 | 20 | – | – | –
64 | CCCC1=Nc2cc(C(=O)NC(C)CC)ccc2Sc2ccccc21 (stereo not drawn) | 105 | 100 | – | – | –
65 | O=C(NCCc1cccc(Cl)c1)c1ccc2c(c1)N=C(c1ccc(F)cc1)c1ccccc1S2 [drawing 919] | 98 | 15.8 | – | – | –
66 | C[C@@H]1CCC[C@H](C)N1NC(=O)c1ccc2c(c1)N=C(c1ccc(Cl)c(Cl)c1)c1ccccc1S2 [drawing 739] | 114 | – | – | – | 7.94
67 | CCCNC(=O)c1ccc2c(c1)N=C(c1ccc(Cl)cc1)c1ccccc1S2 [drawing 969] | – | 20 | – | 105 | –
68 | O=C(NN1CCCCCC1)c1ccc2c(c1)N=C(c1ccc(Cl)s1)c1ccccc1S2 [drawing 797] | 105 | 10 | – | – | –
69 | O=C(NCCc1ccccn1)c1ccc2c(c1)N=C(c1ccc(Cl)c(Cl)c1)c1ccccc1S2 [drawing 1077] | 93 | 31.6 | – | – | –
70 | CC(C)CCNC(=O)c1ccc2c(c1)N=C(c1ccccc1F)c1ccccc1S2 [drawing 1067] | 117 | 31.6 | – | – | –
71 | O=C(NCCC(F)(F)F)c1ccc2c(c1)N=C(c1ccc(Cl)cc1F)c1ccccc1S2 [drawing 667] | 100 | 6.31 | – | – | –
